Measured values as given in PubChem BioAssay (NCI).
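Following 48 hours of exposure in 96-well plates, responses at five concentrations were used to interpolate endpoints linearly. GI50 = concentration required for 50% inhibition of growth. TGI: concentration producing complete growth inhibition.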

What was measured:
Experiment in all cases: NCI tumour cell line growth inhibition, 48 h
[1] = test system: NCI-H460 lung
[2] = test system: T-47D breast
[3] = test system: IGROV1 ovarian
[4] = test system: MCF7 breast
[5] = test system: CCRF-CEM leukemia
[6] = test system: RXF 393 renal
[7] = test system: SK-OV-3 ovarian
[8] = test system: HCC-2998 colon
[9] = test system: HOP-62 NSCLC
[10] = test system: BT-549 breast
[11] = test system: ACHN renal
[12] = test system: MOLT-4 leukemia
[13] = test system: M14 melanoma
[14] = test system: NCI-H23 lung
[15] = test system: PC-3 prostate
[16] = test system: KM12 colon
[17] = test system: TK-10 renal
[18] = test system: A498 renal
[19] = test system: OVCAR-4 ovarian
[20] = test system: NCI-H226 lung
[21] = test system: DU-145 prostate
[22] = test system: COLO 205 colon
[23] = test system: OVCAR-3 ovarian
[24] = test system: NCI/ADR-RES ovarian
[25] = test system: HS 578T breast
[26] = test system: MALME-3M melanoma
[27] = test system: OVCAR-8 ovarian
[28] = test system: HL-60(TB) leukemia
[29] = test system: LOX IMVI melanoma
[30] = test system: SF-539 CNS
[31] = test system: SN12C renal
[32] = test system: SK-MEL-28 melanoma
[33] = test system: UO-31 renal
[34] = test system: HOP-92 NSCLC
[35] = test system: SW-620 colon
[36] = test system: MDA-MB-231 breast
[37] = test system: NCI-H522 lung
[38] = test system: SF-295 CNS
[39] = test system: RPMI-8226 leukemia
[40] = test system: SNB-19 CNS
[41] = test system: OVCAR-5 ovarian
[42] = test system: A549 NSCLC
[43] = test system: CAKI-1 renal
[44] = test system: EKVX NSCLC
[45] = test system: HT29 colon
[46] = test system: SF-268 CNS
[47] = test system: SK-MEL-2 melanoma
[48] = test system: 786-0 renal
[49] = test system: SNB-75 CNS
[50] = test system: MDA-MB-435
[51] = test system: UACC-257 melanoma
[52] = test system: HCT-116 colon
[53] = test system: SK-MEL-5 melanoma
[54] = test system: HCT-15 colon
[55] = test system: K-562 leukemia
[56] = test system: U251 CNS
[57] = test system: SR leukemia
[58] = test system: UACC-62 melanoma

Molecule `CCCCS(=O)c1sc2nc(-c3cccs3)cc(-c3ccccc3)c2c1N` (stereo not given) has a GI50 [1] of 13 µM, a TGI [1] greater than 96.8 µM and a GI50 [2] of 5.77 µM. The TGI [2] was 46.7 µM, the GI50 [3] was 20.3 µM and the TGI [3] was greater than 100 µM. For the same molecule, the GI50 [4] was 10.4 µM, the TGI [4] was greater than 100 µM and the GI50 [5] was 6.71 µM. It also gave a TGI [5] greater than 84.8 µM, a GI50 [6] of 10.6 µM and a TGI [6] of 58 µM. It also gave a GI50 [7] of 27.8 µM, a TGI [7] of 97.3 µM and a GI50 [8] of 32 µM. The TGI [8] was greater than 100 µM, the GI50 [9] was 31.1 µM and the TGI [9] was greater than 100 µM. It also gave a GI50 [10] of 9.24 µM, a TGI [10] of 67.9 µM and a GI50 [11] of 9.1 µM. The TGI [11] was greater than 95.3 µM, the GI50 [12] was 3.8 µM and the TGI [12] was greater than 62.6 µM. The GI50 [13] was 17.9 µM, the TGI [13] was greater than 100 µM and the GI50 [14] was 19 µM. It also gave a TGI [14] greater than 100 µM, a GI50 [15] of 3.45 µM and a TGI [15] greater than 86.6 µM. The GI50 [16] was 17.8 µM, the TGI [16] was greater than 100 µM and the GI50 [17] was 15 µM. For the same molecule, the TGI [17] was greater than 84 µM, the GI50 [18] was 8.02 µM and the TGI [18] was 76.9 µM. It also gave a GI50 [19] of 13.5 µM, a TGI [19] greater than 100 µM and a GI50 [20] of 17.8 µM. For the same molecule, the TGI [20] was greater than 100 µM, the GI50 [21] was 30.4 µM and the TGI [21] was greater than 100 µM. It also gave a GI50 [22] of 16.9 µM, a TGI [22] of 56.6 µM and a GI50 [23] of 14.3 µM. It also gave a TGI [23] greater than 100 µM, a GI50 [24] of 6.42 µM and a TGI [24] greater than 100 µM. For the same molecule, the GI50 [25] was 18.9 µM, the TGI [25] was greater than 100 µM and the GI50 [26] was 26.1 µM. It also gave a TGI [26] of 75.4 µM, a GI50 [27] of 19.9 µM and a TGI [27] greater than 100 µM. The GI50 [28] was 14.5 µM, the TGI [28] was greater than 85.5 µM and the GI50 [29] was 13 µM. It also gave a TGI [29] greater than 100 µM, a GI50 [30] of 24.7 µM and a TGI [30] greater than 100 µM. The GI50 [31] was 24.9 µM, the TGI [31] was greater than 100 µM and the GI50 [32] was 29.2 µM. For the same molecule, the TGI [32] was greater than 100 µM, the GI50 [33] was 4.16 µM and the TGI [33] was 49.2 µM. For the same molecule, the GI50 [34] was 5.78 µM, the TGI [34] was 66.1 µM and the GI50 [35] was 26 µM. It also gave a TGI [35] greater than 100 µM, a GI50 [36] of 18.2 µM and a TGI [36] greater than 100 µM. For the same molecule, the GI50 [37] was 17.3 µM, the TGI [37] was greater than 87.8 µM and the GI50 [38] was 9.88 µM. It also gave a TGI [38] greater than 100 µM, a GI50 [39] of 3.59 µM and a TGI [39] of 23.7 µM. It also gave a GI50 [40] of 18.7 µM, a TGI [40] greater than 100 µM and a GI50 [41] of 24.7 µM. For the same molecule, the TGI [41] was greater than 88.9 µM, the GI50 [42] was 9.69 µM and the TGI [42] was greater than 100 µM. The GI50 [43] was 10.3 µM, the TGI [43] was greater than 100 µM and the GI50 [44] was 9.48 µM. The TGI [44] was greater than 100 µM, the GI50 [45] was 20.6 µM and the TGI [45] was greater than 100 µM. The GI50 [46] was 23.3 µM, the TGI [46] was greater than 100 µM and the GI50 [47] was 17.3 µM. It also gave a TGI [47] of 47.8 µM, a GI50 [48] of 8.26 µM and a TGI [48] greater than 100 µM. The GI50 [49] was 10.2 µM, the TGI [49] was 98.7 µM and the GI50 [50] was 17.3 µM. It also gave a TGI [50] of 99.7 µM, a GI50 [51] of 25.1 µM and a TGI [51] of 90.5 µM. The GI50 [52] was 12.3 µM, the TGI [52] was greater than 100 µM and the GI50 [53] was 13.3 µM. It also gave a TGI [53] of 28.3 µM, a GI50 [54] of 9.02 µM and a TGI [54] greater than 100 µM. It also gave a GI50 [55] of 5.96 µM, a TGI [55] greater than 100 µM and a GI50 [56] of 18 µM. For the same molecule, the TGI [56] was greater than 100 µM, the GI50 [57] was 6.46 µM and the TGI [57] was greater than 68 µM.

For `CC(C)(C)OC(=O)N(CCCCNC(=O)C(F)(F)F)CCCNC(=O)C(F)(F)F`, the TGI [1] was greater than 100 µM, the TGI [2] was greater than 100 µM and the TGI [3] was greater than 100 µM. For the same molecule, the TGI [4] was greater than 100 µM, the TGI [5] was greater than 100 µM and the TGI [6] was greater than 100 µM. It also gave a TGI [7] greater than 100 µM, a TGI [8] greater than 100 µM and a TGI [9] greater than 100 µM. It also gave a TGI [10] greater than 100 µM, a TGI [11] greater than 100 µM and a TGI [12] greater than 100 µM. The TGI [13] was greater than 100 µM, the TGI [14] was greater than 100 µM and the TGI [15] was greater than 100 µM. It also gave a TGI [16] greater than 100 µM, a TGI [17] greater than 100 µM and a TGI [18] greater than 100 µM. For the same molecule, the TGI [19] was greater than 100 µM, the TGI [20] was greater than 100 µM and the TGI [21] was greater than 100 µM. It also gave a TGI [22] greater than 100 µM, a TGI [23] greater than 100 µM and a TGI [24] greater than 100 µM. It also gave a TGI [25] greater than 100 µM, a TGI [58] greater than 100 µM and a TGI [27] greater than 100 µM. The TGI [28] was greater than 100 µM, the TGI [30] was greater than 100 µM and the TGI [31] was greater than 100 µM. For the same molecule, the TGI [32] was greater than 100 µM, the TGI [33] was greater than 100 µM and the TGI [34] was greater than 100 µM. The TGI [35] was greater than 100 µM, the TGI [36] was greater than 100 µM and the TGI [37] was greater than 100 µM. For the same molecule, the TGI [38] was greater than 100 µM, the TGI [39] was greater than 100 µM and the TGI [40] was greater than 100 µM. It also gave a TGI [41] greater than 100 µM, a TGI [42] greater than 100 µM and a TGI [43] greater than 100 µM. For the same molecule, the TGI [44] was greater than 100 µM, the TGI [45] was greater than 100 µM and the TGI [46] was greater than 100 µM. The TGI [47] was greater than 100 µM, the TGI [48] was greater than 100 µM and the TGI [49] was greater than 100 µM. For the same molecule, the TGI [50] was greater than 100 µM, the TGI [51] was greater than 100 µM and the TGI [52] was greater than 100 µM. The TGI [53] was greater than 100 µM, the TGI [54] was greater than 100 µM and the TGI [55] was greater than 100 µM. The TGI [56] was greater than 100 µM and the TGI [57] was greater than 100 µM.
